What was measured:
MCF-7 cells = assay: Breast cancer cell viability assay (CellTiter-Glo, 5 days); type: cell-based; details: 5 days' compound exposure; for IC50: Homo sapiens, MCF7, 120 h
Summary of the method: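 Eleven-point semilog compound series, final 0.3-0.000003 μM, added to overnight-adhered MCF-7 cells (320/well; RPMI, 10% FBS, 20 mM HEPES) for 5 days. Viability read by CellTiter-Glo luminescence, background from medium without cells subtracted, expressed relative to untreated cells.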

ER-α in MCF-7 cells = target: T1, ER-α in MCF-7 cells (Homo sapiens, UniProt P03372); assay: Breast cancer cell ER-α in cell western assay (SP1); type: cell-based; design: endogenous in cells; host or cells: MCF-7; details: 4 or 24 hr post compound addition; for Emax: MCF7, SP1 antibody, read-out: ER-α In Cell Western Assay (SP1) Max Response; for DC50: SP1 antibody, read-out: ER-α In Cell Western Assay (SP1) IC50
T1 sequence (P03372 1-595): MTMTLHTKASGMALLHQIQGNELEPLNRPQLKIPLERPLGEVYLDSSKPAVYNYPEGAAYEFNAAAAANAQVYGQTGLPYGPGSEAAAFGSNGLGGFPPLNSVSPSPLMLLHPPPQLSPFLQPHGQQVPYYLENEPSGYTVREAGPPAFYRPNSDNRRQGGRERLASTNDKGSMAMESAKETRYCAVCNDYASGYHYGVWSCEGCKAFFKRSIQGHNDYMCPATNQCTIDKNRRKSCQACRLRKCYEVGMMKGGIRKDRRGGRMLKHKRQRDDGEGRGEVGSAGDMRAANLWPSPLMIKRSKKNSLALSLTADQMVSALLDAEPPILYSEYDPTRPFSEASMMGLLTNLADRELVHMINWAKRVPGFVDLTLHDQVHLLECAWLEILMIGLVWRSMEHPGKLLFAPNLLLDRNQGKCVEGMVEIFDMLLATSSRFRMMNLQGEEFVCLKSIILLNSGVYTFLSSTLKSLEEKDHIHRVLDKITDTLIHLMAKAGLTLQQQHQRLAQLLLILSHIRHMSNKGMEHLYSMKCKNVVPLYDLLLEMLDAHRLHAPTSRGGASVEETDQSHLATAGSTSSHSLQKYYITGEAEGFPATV
Summary of the method: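 Read-out is infrared in-cell western: SP1-detected ER intensity at 800 nm divided by DRAQ5 DNA intensity at 700 nm, relative to untreated wells ×100.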

Row | IC50 (MCF-7 cells) | Emax (ER-α in MCF-7 cells) | DC50 (ER-α in MCF-7 cells) | Structure (SMILES) | MCF7 Viability Assay Max Response (MCF-7 cells)
1 | ≤ 0.1 µM | ≥ 40% | ≤ 0.1 µM | CC/C(=C(/c1ccc(/C=C/C(=O)O)cc1)c1ccc2scnc2c1)c1ccncc1Cl [Compound 284, (E)-3-(4-((E)-1-(Benzo[d]thiazol-5-yl)-2-(3-chloropyridin-4-yl)but-1-en-1-yl)phenyl)acrylic acid] | ++ (++ = a single % value ≧ 40%)
2 | ≤ 0.1 µM | ≥ 40% | ≤ 0.1 µM | O=C(O)/C=C/c1ccc(/C(=C(\c2ccccc2)C2CCC2)c2ccc3scnc3c2)cc1 [Compound 286, (E)-3-(4-((E)-1-(Benzo[d]thiazol-5-yl)-2-cyclobutyl-2-phenylvinyl)phenyl)acrylic acid] | ++ (++ = a single % value ≧ 40%)
3 | ≤ 0.1 µM | ≥ 40% | ≤ 0.1 µM | CC/C(=C(/c1ccc(/C=C/C(=O)O)cc1)c1ccc2c(c1)CNC2=O)c1ccc(F)cc1Cl [Compound 287, (E)-3-(4-((E)-2-(2-Chloro-4-fluorophenyl)-1-(1-oxoisoindolin-5-yl)but-1-en-1-yl)phenyl)acrylic acid] | ++ (++ = a single % value ≧ 40%)
4 | > 0.1 µM | ≥ 40% | ≤ 0.1 µM | CC/C(=C(/c1ccc(/C=C/C(=O)O)cc1)c1ccc2[nH]ncc2c1)c1ccc(S(=O)(=O)C(F)(F)F)cc1 [Compound 288] | ++ (++ = a single % value ≧ 40%)
5 | > 0.1 µM | ≥ 40% | ≤ 0.1 µM | CC/C(=C(/c1ccc(/C=C/C(=O)O)cc1)c1ccc2cccnc2c1)c1ccc(F)cc1Cl [Compound 289, (E)-3-(4-((E)-2-(2-Chloro-4-fluorophenyl)-1-(quinolin-7-yl)but-1-en-1-yl)phenyl)acrylic acid] | ++ (++ = a single % value ≧ 40%)
6 | ≤ 0.1 µM | ≥ 40% | ≤ 0.1 µM | CC/C(=C(/c1ccc(/C=C/C(=O)O)cc1)c1ccc2[nH]ncc2c1)c1ccc(Oc2ncccn2)cc1 [Compound 290, (E)-3-(4-((E)-1-(1H-Indazol-5-yl)-2-(4-(pyrimidin-2-yloxy)phenyl)but-1-en-1-yl)phenyl)acrylic acid] | ++ (++ = a single % value ≧ 40%)
7 | ≤ 0.1 µM | ≥ 40% | ≤ 0.1 µM | CC/C(=C(/c1ccc(/C=C/C(=O)O)cc1)c1ccc2[nH]ncc2c1)c1ccc(Oc2ccccc2)cc1Cl [Compound 291, (E)-3-(4-((E)-2-(2-Chloro-4-phenoxyphenyl)-1-(1H-indazol-5-yl)but-1-en-1-yl)phenyl)acrylic acid] | ++ (++ = a single % value ≧ 40%)
8 | ≤ 0.1 µM | ≥ 40% | ≤ 0.1 µM | CC/C(=C(/c1ccc(/C=C/C(=O)O)cc1)c1ccc2[nH]ncc2c1)c1ccc(Oc2cccnc2)cc1 [Compound 292, (E)-3-(4-((E)-1-(1H-Indazol-5-yl)-2-(4-(pyridin-3-yloxy)phenyl)but-1-en-1-yl)phenyl)acrylic acid] | ++ (++ = a single % value ≧ 40%)
9 | ≤ 0.1 µM | ≥ 40% | ≤ 0.1 µM | CC/C(=C(/c1ccc(/C=C/C(=O)O)cc1)c1ccc2[nH]ncc2c1)c1ccc(Oc2cnccn2)cc1 [Compound 293, (E)-3-(4-((E)-1-(1H-Indazol-5-yl)-2-(4-(pyrazin-2-yloxy)phenyl)but-1-en-1-yl)phenyl)acrylic acid] | ++ (++ = a single % value ≧ 40%)
10 | ≤ 0.1 µM | ≥ 40% | ≤ 0.1 µM | CC/C(=C(/c1ccc(/C=C/C(=O)O)cc1)c1ccc2[nH]ncc2c1)c1ccc(F)c(Oc2ccccc2)c1 [Compound 294, (E)-3-(4-((E)-2-(4-Fluoro-3-phenoxyphenyl)-1-(1H-indazol-5-yl)but-1-en-1-yl)phenyl)acrylic acid] | ++ (++ = a single % value ≧ 40%)
11 | ≤ 0.1 µM | ≥ 40% | ≤ 0.1 µM | CC/C(=C(/c1ccc(/C=C/C(=O)O)cc1)c1ccc2[nH]ncc2c1)c1ccc(Oc2ccccc2)c(F)c1 [Compound 295, (E)-3-(4-((E)-2-(3-Fluoro-4-phenoxyphenyl)-1-(1H-indazol-5-yl)but-1-en-1-yl)phenyl)acrylic acid] | ++ (++ = a single % value ≧ 40%)
12 | ≤ 0.1 µM | ≥ 40% | ≤ 0.1 µM | CC/C(=C(/c1ccc(/C=C/C(=O)O)cc1)c1ccc2[nH]ncc2c1F)c1ccc(Oc2ccccn2)cc1 [Compound 296, (E)-3-(4-((E)-1-(4-Fluoro-1H-indazol-5-yl)-2-(4-(pyridin-2-yloxy)phenyl)but-1-en-1-yl)phenyl)acrylic acid] | ++ (++ = a single % value ≧ 40%)
13 | ≤ 0.1 µM | ≥ 40% | ≤ 0.1 µM | CC/C(=C(/c1ccc(/C=C/C(=O)O)cc1)c1ccc2[nH]ncc2c1)c1cc(Oc2ccccc2)ccc1C [Compound 297, (E)-3-(4-((E)-1-(1H-Indazol-5-yl)-2-(2-methyl-5-phenoxyphenyl)but-1-en-1-yl)phenyl)acrylic acid] | ++ (++ = a single % value ≧ 40%)
14 | ≤ 0.1 µM | ≥ 40% | ≤ 0.1 µM | CC/C(=C(/c1ccc(/C=C/C(=O)O)cc1)c1ccc2[nH]ncc2c1)c1cccc(Oc2ccccc2)c1F [Compound 298, (E)-3-(4-((E)-2-(2-Fluoro-3-phenoxyphenyl)-1-(1H-indazol-5-yl)but-1-en-1-yl)phenyl)acrylic acid] | ++ (++ = a single % value ≧ 40%)
15 | > 0.1 µM | ≥ 40% | ≤ 0.1 µM | CC/C(=C(/c1ccc(/C=C/C(=O)O)cc1)c1ccc2scnc2c1)c1cccc(Oc2ccccc2)c1 [Compound 299, (E)-3-(4-((E)-1-(Benzo[d]thiazol-5-yl)-2-(3-phenoxyphenyl)but-1-en-1-yl)phenyl)acrylic acid] | ++ (++ = a single % value ≧ 40%)
16 | > 0.1 µM | ≥ 40% | ≤ 0.1 µM | CC/C(=C(/c1ccc(/C=C/C(=O)O)cc1)c1ccc2scnc2c1)c1cccc(Oc2ccccn2)c1 [Compound 300, (E)-3-(4-((E)-1-(Benzo[d]thiazol-5-yl)-2-(3-(pyridin-2-yloxy)phenyl)but-1-en-1-yl)phenyl)acrylic acid] | ++ (++ = a single % value ≧ 40%)
17 | > 0.1 µM | ≥ 40% | ≤ 0.1 µM | CC/C(=C(/c1ccc(/C=C/C(=O)O)cc1)c1ccc2scnc2c1)c1cccc(Oc2cnccn2)c1 [Compound 301, (E)-3-(4-((E)-1-(Benzo[d]thiazol-5-yl)-2-(3-(pyrazin-2-yloxy)phenyl)but-1-en-1-yl)phenyl)acrylic acid] | ++ (++ = a single % value ≧ 40%)
18 | ≤ 0.1 µM | ≥ 40% | ≤ 0.1 µM | CC/C(=C(/c1ccc(/C=C/C(=O)O)cc1)c1ccc2[nH]ncc2c1)c1ccc([S+]([O-])C(F)(F)F)cc1 (stereo not drawn) [Compound 302, (E)-3-(4-((E)-1-(1H-Indazol-5-yl)-2-(4-((trifluoromethyl)sulfinyl)phenyl)but-1-en-1-yl)phenyl)acrylic acid] | ++ (++ = a single % value ≧ 40%)
19 | > 0.1 µM | ≥ 40% | > 0.1 µM | CC/C(=C(/c1ccc(/C=C/C(=O)O)cc1)c1ccc2[nH]ncc2c1)c1ccncc1C#N [Compound 303, (E)-3-(4-((E)-2-(3-Cyanopyridin-4-yl)-1-(1H-indazol-5-yl)but-1-en-1-yl)phenyl)acrylic acid] | ++ (++ = a single % value ≧ 40%)
20 | ≤ 0.1 µM | ≥ 40% | ≤ 0.1 µM | CC/C(=C(/c1ccc(/C=C/C(=O)O)cc1)c1ccc2[nH]ncc2c1)c1ccncc1C(F)(F)F [Compound 304, (E)-3-(4-((E)-1-(1H-Indazol-5-yl)-2-(3-(trifluoromethyl)pyridin-4-yl)but-1-en-1-yl)phenyl)acrylic acid] | ++ (++ = a single % value ≧ 40%)
21 | ≤ 0.1 µM | ≥ 40% | ≤ 0.1 µM | O=C(O)/C=C/c1ccc(/C(=C(\c2ccncc2Cl)C2CCC2)c2ccc3[nH]ncc3c2)cc1 [Compound 305, (E)-3-(4-((E)-2-(3-Chloropyridin-4-yl)-2-cyclobutyl-1-(1H-indazol-5-yl)vinyl)phenyl)acrylic acid] | ++ (++ = a single % value ≧ 40%)
